Reference: ChEMBL document CHEMBL1201862, “PubChem BioAssay data set” (2004)
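Results reflect a 48-hour exposure of cells in 96-well plates to compound at five concentrations. GI50 = concentration required for 50% inhibition of growth.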 The source made the active and inactive calls. No stated cut-off is given here; in the data, active = GI50 up to about 1.1 µM and inactive = higher.

Experiments:
Assay in all cases: NCI tumour cell line growth inhibition, 48 h
CCRF-CEM = system: CCRF-CEM
NCI-H226 = system: NCI-H226
SNB-75 = system: SNB-75
HOP-62 = system: HOP-62
EKVX = system: EKVX
SF-295 = system: SF-295
SK-MEL-5 = system: SK-MEL-5
RPMI-8226 = system: RPMI-8226
SN12C = system: SN12C
OVCAR-5 = system: OVCAR-5
786-0 = system: 786-0
M14 = system: M14
OVCAR-3 = system: OVCAR-3
OVCAR-8 = system: OVCAR-8
HL-60 = system: HL-60
HT-29 = system: HT-29
NCI-H522 = system: NCI-H522
CAKI-1 = system: CAKI-1
Malme-3M = system: Malme-3M
MDA-N = system: MDA-N
BT-549 = system: BT-549
ACHN = system: ACHN
RXF 393 = system: RXF 393
SNB-19 = system: SNB-19
SK-MEL-28 = system: SK-MEL-28
SF-539 = system: SF-539
DU-145 = system: DU-145
MDA-MB-231 = system: MDA-MB-231
UO-31 = system: UO-31
MOLT-4 = system: MOLT-4
Hs-578T = system: Hs-578T
NCI/ADR-RES = system: NCI/ADR-RES
HCT-116 = system: HCT-116
T47D = system: T47D
K562 = system: K562
LOX IMVI = system: LOX IMVI
SK-MEL-2 = system: SK-MEL-2
U-251 = system: U-251
HCC 2998 = system: HCC 2998
NCI-H23 = system: NCI-H23
MCF7 = system: MCF7
TK-10 = system: TK-10
COLO 205 = system: COLO 205
UACC-257 = system: UACC-257
SK-OV-3 = system: SK-OV-3
A549 = system: A549
UACC-62 = system: UACC-62
PC-3 = system: PC-3
MDA-MB-435 = system: MDA-MB-435
IGROV-1 = system: IGROV-1
SF-268 = system: SF-268
KM12 = system: KM12
SW-620 = system: SW-620
A498 = system: A498
OVCAR-4 = system: OVCAR-4
HOP-92 = system: HOP-92
NCI-H460 = system: NCI-H460
HCT-15 = system: HCT-15

For `CC(C)=NNc1snnc1C(N)=O`, the GI50 (CCRF-CEM) was > 100 µM (inactive), the GI50 (NCI-H226) was > 100 µM (inactive) and the GI50 (SNB-75) was > 100 µM (inactive). For the same compound, the GI50 (HOP-62) was > 100 µM (inactive), the GI50 (EKVX) was > 100 µM (inactive) and the GI50 (SF-295) was > 100 µM (inactive). For the same compound, the GI50 (SK-MEL-5) was > 100 µM (inactive), the GI50 (RPMI-8226) was > 100 µM (inactive) and the GI50 (SN12C) was > 100 µM (inactive). The GI50 (OVCAR-5) was > 100 µM (inactive), the GI50 (786-0) was > 100 µM (inactive) and the GI50 (M14) was > 100 µM (inactive). The GI50 (OVCAR-3) was > 100 µM (inactive), the GI50 (OVCAR-8) was > 100 µM (inactive) and the GI50 (HL-60) was > 100 µM (inactive). The GI50 (HT-29) was > 100 µM (inactive), the GI50 (NCI-H522) was > 100 µM (inactive) and the GI50 (CAKI-1) was > 100 µM (inactive). The GI50 (Malme-3M) was > 100 µM (inactive), the GI50 (MDA-N) was > 100 µM (inactive) and the GI50 (BT-549) was > 100 µM (inactive). For the same compound, the GI50 (ACHN) was > 100 µM (inactive), the GI50 (RXF 393) was > 100 µM (inactive) and the GI50 (SNB-19) was > 100 µM (inactive). The GI50 (SK-MEL-28) was > 100 µM (inactive), the GI50 (SF-539) was > 100 µM (inactive) and the GI50 (DU-145) was > 100 µM (inactive). For the same compound, the GI50 (MDA-MB-231) was > 100 µM (inactive), the GI50 (UO-31) was > 100 µM (inactive) and the GI50 (MOLT-4) was > 100 µM (inactive). For the same compound, the GI50 (Hs-578T) was > 100 µM (inactive), the GI50 (NCI/ADR-RES) was > 100 µM (inactive) and the GI50 (HCT-116) was > 100 µM (inactive). For the same compound, the GI50 (T47D) was > 100 µM (inactive), the GI50 (K562) was > 100 µM (inactive) and the GI50 (LOX IMVI) was > 100 µM (inactive). The GI50 (SK-MEL-2) was > 100 µM (inactive), the GI50 (U-251) was > 100 µM (inactive) and the GI50 (HCC 2998) was > 100 µM (inactive). The GI50 (NCI-H23) was > 100 µM (inactive), the GI50 (MCF7) was > 100 µM (inactive) and the GI50 (TK-10) was > 100 µM (inactive). For the same compound, the GI50 (COLO 205) was > 100 µM (inactive), the GI50 (UACC-257) was > 100 µM (inactive) and the GI50 (SK-OV-3) was > 100 µM (inactive). For the same compound, the GI50 (A549) was > 100 µM (inactive), the GI50 (UACC-62) was > 100 µM (inactive) and the GI50 (PC-3) was > 100 µM (inactive). For the same compound, the GI50 (MDA-MB-435) was > 100 µM (inactive), the GI50 (IGROV-1) was > 100 µM (inactive) and the GI50 (SF-268) was > 100 µM (inactive). For the same compound, the GI50 (KM12) was > 100 µM (inactive), the GI50 (SW-620) was > 10 µM (inactive) and the GI50 (A498) was > 100 µM (inactive).

With `O=[N+]([O-])c1cc(Cl)cnc1Br` the GI50 (CCRF-CEM) was 4.32 µM (inactive), the GI50 (NCI-H226) was 2.61 µM (inactive) and the GI50 (HOP-62) was 18.3 µM (inactive). For the same compound, the GI50 (EKVX) was 4.19 µM (inactive), the GI50 (SF-295) was 3.4 µM (inactive) and the GI50 (SK-MEL-5) was 2.4 µM (inactive). The GI50 (RPMI-8226) was 2.84 µM (inactive), the GI50 (SN12C) was 2.92 µM (inactive) and the GI50 (OVCAR-5) was 3.27 µM (inactive). The GI50 (786-0) was 5.83 µM (inactive), the GI50 (M14) was 3.87 µM (inactive) and the GI50 (OVCAR-3) was 2.38 µM (inactive). For the same compound, the GI50 (OVCAR-8) was 2.12 µM (inactive), the GI50 (HL-60) was 3.44 µM (inactive) and the GI50 (HT-29) was 3.28 µM (inactive). The GI50 (CAKI-1) was 1.86 µM (inactive), the GI50 (OVCAR-4) was 2.28 µM (inactive) and the GI50 (Malme-3M) was 10.9 µM (inactive). The GI50 (MDA-N) was 3.33 µM (inactive), the GI50 (BT-549) was 3.18 µM (inactive) and the GI50 (ACHN) was 2.09 µM (inactive). For the same compound, the GI50 (HOP-92) was 8.75 µM (inactive), the GI50 (RXF 393) was 1.52 µM (inactive) and the GI50 (SNB-19) was 9.71 µM (inactive). The GI50 (SK-MEL-28) was 3.33 µM (inactive), the GI50 (SF-539) was 2.05 µM (inactive) and the GI50 (DU-145) was 3.71 µM (inactive). For the same compound, the GI50 (MDA-MB-231) was 3.45 µM (inactive), the GI50 (UO-31) was 1.76 µM (inactive) and the GI50 (MOLT-4) was 1.25 µM (inactive). For the same compound, the GI50 (Hs-578T) was 7.16 µM (inactive), the GI50 (NCI/ADR-RES) was 2.14 µM (inactive) and the GI50 (HCT-116) was 4.42 µM (inactive). For the same compound, the GI50 (T47D) was 3.1 µM (inactive), the GI50 (K562) was 2.64 µM (inactive) and the GI50 (LOX IMVI) was 1.22 µM (inactive). For the same compound, the GI50 (U-251) was 2.16 µM (inactive), the GI50 (HCC 2998) was 1.37 µM (inactive) and the GI50 (NCI-H23) was 5.52 µM (inactive). The GI50 (MCF7) was 1.32 µM (inactive), the GI50 (TK-10) was 3.22 µM (inactive) and the GI50 (COLO 205) was 1.34 µM (inactive). For the same compound, the GI50 (UACC-257) was 9.48 µM (inactive), the GI50 (SK-OV-3) was 10.3 µM (inactive) and the GI50 (A549) was 2.67 µM (inactive). The GI50 (UACC-62) was 1.93 µM (inactive), the GI50 (PC-3) was 7.53 µM (inactive) and the GI50 (MDA-MB-435) was 2.23 µM (inactive). The GI50 (IGROV-1) was 2.22 µM (inactive), the GI50 (NCI-H460) was 3.95 µM (inactive) and the GI50 (SF-268) was 2.64 µM (inactive). The GI50 (KM12) was 4.03 µM (inactive), the GI50 (SW-620) was 3.42 µM (inactive) and the GI50 (A498) was 17.1 µM (inactive). The GI50 (HCT-15) was 2.25 µM.
